Holding throughout (experiment): VEGFR2 Kinase Assay
Settings in all cases: pH 7.2; 25 °C

Test [1] deals with Fibroblast growth factor 2 (Homo sapiens, UniProt P09038).
For test [2], the target named is Epidermal growth factor receptor (Homo sapiens, UniProt P00533).
The target in test [3] is Vascular endothelial growth factor receptor 2 (Homo sapiens, UniProt P35968). The procedure: VEGFR kinase assays were set up to assess the level of autophosphorylation based on DELFIA/Time-Resolved Fluorometry. 96-well plates were coated at room temperature for 1-2 h with 100 μL per well of 25 μg mL−1 poly-(Glu4-Tyr) peptide (Sigma) in Tris-buffered saline (TBS) (25 mM Tris, pH 7.2, 150 mM NaCl). Unbound peptide was washed three times with PBS. The cytoplasmic domain of VEGFR-2 enzyme was diluted (depending on the specific activity of the batch, from 10- to 20-fold) in 0.1% BSA/4 mM HEPES. […] Controls were done by adding DMSO alone, i.e., no test compound, to wells containing the master mix of enzyme plus kinase buffer. After 15 min at room temperature, ATP/MgCl2 (20 μL of
Sequence of Vascular endothelial growth factor receptor 2 (P35968 whole entry, the tested form may be a part): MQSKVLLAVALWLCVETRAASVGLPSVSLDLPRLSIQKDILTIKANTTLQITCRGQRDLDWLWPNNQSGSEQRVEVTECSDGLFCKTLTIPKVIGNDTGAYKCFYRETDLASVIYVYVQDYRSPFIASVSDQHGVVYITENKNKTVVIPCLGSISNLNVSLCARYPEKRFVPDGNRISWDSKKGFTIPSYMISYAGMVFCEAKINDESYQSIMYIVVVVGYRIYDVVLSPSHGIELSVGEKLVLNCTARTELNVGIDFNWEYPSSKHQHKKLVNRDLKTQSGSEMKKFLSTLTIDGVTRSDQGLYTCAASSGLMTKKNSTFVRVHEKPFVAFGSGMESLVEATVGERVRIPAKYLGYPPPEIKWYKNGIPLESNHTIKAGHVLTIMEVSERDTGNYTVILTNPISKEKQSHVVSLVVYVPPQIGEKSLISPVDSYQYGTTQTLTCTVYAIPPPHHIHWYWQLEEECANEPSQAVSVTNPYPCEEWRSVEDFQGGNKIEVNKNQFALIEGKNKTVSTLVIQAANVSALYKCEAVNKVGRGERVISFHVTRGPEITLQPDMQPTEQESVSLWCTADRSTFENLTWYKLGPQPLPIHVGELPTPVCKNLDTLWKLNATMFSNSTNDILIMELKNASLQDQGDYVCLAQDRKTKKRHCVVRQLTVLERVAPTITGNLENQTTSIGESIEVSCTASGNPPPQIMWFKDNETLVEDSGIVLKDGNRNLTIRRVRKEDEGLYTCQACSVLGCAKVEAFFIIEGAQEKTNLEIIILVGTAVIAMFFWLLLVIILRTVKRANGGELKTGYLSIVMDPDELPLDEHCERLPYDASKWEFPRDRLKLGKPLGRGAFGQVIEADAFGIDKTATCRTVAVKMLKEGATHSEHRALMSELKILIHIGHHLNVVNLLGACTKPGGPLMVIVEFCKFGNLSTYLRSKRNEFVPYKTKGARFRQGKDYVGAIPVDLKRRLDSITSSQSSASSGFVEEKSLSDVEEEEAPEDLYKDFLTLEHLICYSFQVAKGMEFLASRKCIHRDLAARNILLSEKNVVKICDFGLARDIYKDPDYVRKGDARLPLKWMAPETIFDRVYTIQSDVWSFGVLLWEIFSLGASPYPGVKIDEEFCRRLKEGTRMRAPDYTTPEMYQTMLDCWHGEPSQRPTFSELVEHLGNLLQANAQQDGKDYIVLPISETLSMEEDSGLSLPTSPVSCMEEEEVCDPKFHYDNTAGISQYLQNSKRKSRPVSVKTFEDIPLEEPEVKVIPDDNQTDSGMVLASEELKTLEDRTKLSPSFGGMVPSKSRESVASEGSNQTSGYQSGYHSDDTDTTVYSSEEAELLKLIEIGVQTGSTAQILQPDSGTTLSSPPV

One may read the IC50 as the point on the concentration scale where inhibition reaches its midpoint.

Sequence of Epidermal growth factor receptor (P00533 whole entry, the tested form may be a part): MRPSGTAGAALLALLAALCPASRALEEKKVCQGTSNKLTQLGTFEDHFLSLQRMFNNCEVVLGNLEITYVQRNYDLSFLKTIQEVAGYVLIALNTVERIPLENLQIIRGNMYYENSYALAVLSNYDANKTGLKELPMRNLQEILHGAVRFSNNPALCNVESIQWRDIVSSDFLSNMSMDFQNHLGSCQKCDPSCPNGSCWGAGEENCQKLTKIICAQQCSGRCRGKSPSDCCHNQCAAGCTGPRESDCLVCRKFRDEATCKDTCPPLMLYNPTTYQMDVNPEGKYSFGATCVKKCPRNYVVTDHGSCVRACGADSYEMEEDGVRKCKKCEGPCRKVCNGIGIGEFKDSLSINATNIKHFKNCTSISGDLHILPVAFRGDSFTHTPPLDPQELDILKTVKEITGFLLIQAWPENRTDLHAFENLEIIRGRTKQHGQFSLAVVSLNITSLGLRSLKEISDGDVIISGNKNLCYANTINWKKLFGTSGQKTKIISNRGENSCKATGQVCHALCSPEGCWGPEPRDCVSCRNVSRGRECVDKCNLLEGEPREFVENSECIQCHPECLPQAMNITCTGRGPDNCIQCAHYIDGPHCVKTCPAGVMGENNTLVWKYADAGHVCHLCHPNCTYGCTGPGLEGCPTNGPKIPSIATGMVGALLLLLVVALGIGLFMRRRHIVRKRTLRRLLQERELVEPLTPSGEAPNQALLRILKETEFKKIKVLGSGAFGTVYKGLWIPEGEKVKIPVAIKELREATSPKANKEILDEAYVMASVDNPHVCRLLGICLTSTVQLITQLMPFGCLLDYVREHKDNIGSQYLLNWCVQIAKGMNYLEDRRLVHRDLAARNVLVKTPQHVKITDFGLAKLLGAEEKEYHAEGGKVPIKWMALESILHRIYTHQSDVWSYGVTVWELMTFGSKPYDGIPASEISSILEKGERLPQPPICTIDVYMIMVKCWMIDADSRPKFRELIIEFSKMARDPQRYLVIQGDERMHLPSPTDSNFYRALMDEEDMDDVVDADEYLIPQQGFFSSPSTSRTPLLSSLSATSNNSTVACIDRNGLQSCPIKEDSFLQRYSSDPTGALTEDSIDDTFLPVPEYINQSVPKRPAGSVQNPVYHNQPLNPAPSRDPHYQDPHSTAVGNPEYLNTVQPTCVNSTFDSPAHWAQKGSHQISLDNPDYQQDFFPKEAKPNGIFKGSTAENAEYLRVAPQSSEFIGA

Regarding `OC(COc1ncnc2ccccc12)CN1CCN(c2cccc(Cl)c2Cl)CC1` (configuration not stated) [1-(4-(2,3-Dichlorophenyl)piperazin-1-yl)-3-(quinazolin-4-yloxy)propan-2-ol (3k)], the IC50 was found to be 398 nM in test [1], 409 nM in test [2] and 47.7 nM in test [3].
For `OC(COc1ncnc2ccccc12)CN1CCN(c2cccc(C(F)(F)F)c2)CC1` (configuration not stated) [1-(4-(3-(Trifluoromethyl)phenyl)piperazin-1-yl)-3-(quinazolin-4-yloxy)propan-2-ol (3j)] the same measures were 145 nM, 307 nM and 4.98 nM.
On the same counts, the results for `CN(C)CC(O)COc1ncnc2ccccc12` (configuration not stated) [1-(Dimethylamino)-3-(quinazolin-4-yloxy)propan-2-ol (3q)] are 582 nM, 455 nM and 63 nM.
Turning to `OC(COc1ncnc2ccccc12)CN1CCN(c2cccc(Cl)c2)CC1` (configuration not stated) [1-(4-(3-Chlorophenyl)piperazin-1-yl)-3-(quinazolin-4-yloxy)propan-2-ol (3c)], the figures for the half-maximal inhibitory concentration (IC50) in test [1], in test [2] and in test [3] were 402 nM, 413 nM and 47.4 nM, respectively.
Take `OC(COc1ncnc2ccccc12)CN1CCN(c2ccccc2F)CC1` (configuration not stated) [1-(4-(2-Fluorophenyl)piperazin-1-yl)-3-(quinazolin-4-yloxy)propan-2-ol (3d)]: the values for the IC50 in test [1], in test [2] and in test [3] were 372 nM, 409 nM and 34.7 nM, respectively.
For `COc1ccc(N2CCN(CC(O)COc3ncnc4ccccc34)CC2)cc1` (configuration not stated) [1-(4-(4-Methoxyphenyl)piperazin-1-yl)-3-(quinazolin-4-yloxy)propan-2-ol (3i)] the same measures were 122 nM, 276 nM and 3.42 nM.
For the molecule `O=[N+]([O-])c1ccc(N2CCN(CC(O)COc3ncnc4ccccc34)CC2)cc1` (configuration not stated) [1-(4-(4-Nitrophenyl)piperazin-1-yl)-3-(quinazolin-4-yloxy)propan-2-ol (3f)], the concentration for half-maximal inhibition (IC50) in test [1] came out at 248 nM; in test [2], 382 nM; in test [3], 16.5 nM.
Regarding `COc1ccccc1N1CCN(CC(O)COc2ncnc3ccccc23)CC1` (configuration not stated) [1-(4-(2-Methoxyphenyl)piperazin-1-yl)-3-(quinazolin-4-yloxy)propan-2-ol (3g)], the IC50 turned out to be 209 nM in test [1], 357 nM in test [2] and 9.98 nM in test [3].
Take `Cc1ccc(N2CCN(CC(O)COc3ncnc4ccccc34)CC2)c(C)c1` (configuration not stated) [1-(4-(2,4-Dimethylphenyl)piperazin-1-yl)-3-(quinazolin-4-yloxy)propan-2-ol (3m)]: the concentration for half-maximal inhibition (IC50) was determined as 222 nM in test [1], 395 nM in test [2] and 12.4 nM in test [3].
Regarding `CCN1CCN(CC(O)COc2ncnc3ccccc23)CC1` (configuration not stated) [1-(4-Ethylpiperazin-1-yl)-3-(quinazolin-4-yloxy)propan-2-ol (3p)], the half-inhibitory concentration (IC50) in test [1] is 519 nM; in test [2], 462 nM; in test [3], 54.4 nM.
In the case of `COc1cccc(N2CCN(CC(O)COc3ncnc4ccccc34)CC2)c1` (configuration not stated) [1-(4-(3-Methoxyphenyl)piperazin-1-yl)-3-(quinazolin-4-yloxy)propan-2-ol (3h)], the IC50 in test [1] was 103 nM; in test [2] it was 208 nM; in test [3], 2.89 nM.
For `OC(COc1ncnc2ccccc12)CN1CCOCC1` (configuration not stated) [1-Morpholino-3-(quinazolin-4-yloxy)propan-2-ol (3r)] the same measures were 602 nM, 483 nM and 81.7 nM.
With `COc1cc2nccc(Oc3ccc(NC(=O)Nc4cc(C)on4)c(Cl)c3)c2cc1OC` [Tivozanib], the IC50 in test [1] was determined as 114 nM.
As for `OC(COc1ncnc2ccccc12)CN1CCCCC1` (configuration not stated) [1-(Piperidin-1-yl)-3-(quinazolin-4-yloxy)propan-2-ol (3s)], the IC50 in test [1] came out at 593 nM; in test [2], 474 nM; in test [3] it was 78.5 nM.
On the same counts, the results for `OC(COc1ncnc2ccccc12)CN1CCN(Cc2ccccc2)CC1` (configuration not stated) [1-(4-Benzylpiperazin-1-yl)-3-(quinazolin-4-yloxy)propan-2-ol (3n)] are 444 nM, 435 nM and 52.2 nM.
On the same counts, the results for `OC(COc1ncnc2ccccc12)CN1CCN(c2ccccc2)CC1` (configuration not stated) [1-(4-Phenylpiperazin-1-yl)-3-(quinazolin-4-yloxy)propan-2-ol (3a)] are 293 nM, 400 nM and 32.6 nM.
For `CN1CCN(CC(O)COc2ncnc3ccccc23)CC1` (configuration not stated) [1-(4-Methylpiperazin-1-yl)-3-(quinazolin-4-yloxy)propan-2-ol (3o)] the same measures were 419 nM, 474 nM and 59.3 nM.
In the case of `OC(COc1ncnc2ccccc12)CN1CCN(c2ccc(Cl)c(Cl)c2)CC1` (configuration not stated) [1-(4-(3,4-Dichlorophenyl)piperazin-1-yl)-3-(quinazolin-4-yloxy)propan-2-ol (3l)], the IC50 stood at 178 nM in test [1], 344 nM in test [2] and 8.42 nM in test [3].
On the same counts, the results for `Cc1cn(CC(O)COc2ncnc3ccccc23)cn1` (configuration not stated) [1-(4-Methyl-1H-imidazol-1-yl)-3-(quinazolin-4-yloxy)propan-2-ol (3v)] are 592 nM, 452 nM and 74.2 nM.
On the same counts, the results for `OC(COc1ncnc2ccccc12)CN1CCN(c2ccc(F)cc2)CC1` (configuration not stated) [1-(4-(4-Fluorophenyl)piperazin-1-yl)-3-(quinazolin-4-yloxy)propan-2-ol (3e)] are 300 nM, 403 nM and 21.8 nM.
Consider `OC(COc1ncnc2ccccc12)Cn1ccnc1` (configuration not stated) [1-(1H-Imidazol-1-yl)-3-(quinazolin-4-yloxy)propan-2-ol (3t)], for which the IC50 stood at 609 nM in test [1], 483 nM in test [2] and 84.3 nM in test [3].
On the same counts, the results for `Cc1nccn1CC(O)COc1ncnc2ccccc12` (configuration not stated) [1-(2-Methyl-1H-imidazol-1-yl)-3-(quinazolin-4-yloxy)propan-2-ol (3u)] are 586 nM, 444 nM and 55.7 nM.
For `OC(COc1ncnc2ccccc12)CN1CCN(c2ccccc2Cl)CC1` (configuration not stated) [1-(4-(2-Chlorophenyl)piperazin-1-yl)-3-(quinazolin-4-yloxy)propan-2-ol (3b)] the same measures were 506 nM, 418 nM and 49.8 nM.

Values taken from BindingDB's records for doi:10.1111/cbdd.12596 (Nanjing University, 2015).
